Data from ChEMBL document CHEMBL1144831, “Pyrano-[2,3b]-pyridines as potassium channel antagonists” (Bioorg Med Chem Lett, 2008).
≈ marks a conversion by molar mass, not a printed value.

Legend:
[1] = biological target: T1, Potassium voltage-gated channel subfamily A member 5 (Homo sapiens, UniProt P22460); experiment: Inhibition of human Kv1.5 channel expressed in mouse L929 cells assessed as blockade of ultra rapidly activating potassium current by voltage clamp technique; assay type: cell-based
T1 sequence (P22460 whole entry): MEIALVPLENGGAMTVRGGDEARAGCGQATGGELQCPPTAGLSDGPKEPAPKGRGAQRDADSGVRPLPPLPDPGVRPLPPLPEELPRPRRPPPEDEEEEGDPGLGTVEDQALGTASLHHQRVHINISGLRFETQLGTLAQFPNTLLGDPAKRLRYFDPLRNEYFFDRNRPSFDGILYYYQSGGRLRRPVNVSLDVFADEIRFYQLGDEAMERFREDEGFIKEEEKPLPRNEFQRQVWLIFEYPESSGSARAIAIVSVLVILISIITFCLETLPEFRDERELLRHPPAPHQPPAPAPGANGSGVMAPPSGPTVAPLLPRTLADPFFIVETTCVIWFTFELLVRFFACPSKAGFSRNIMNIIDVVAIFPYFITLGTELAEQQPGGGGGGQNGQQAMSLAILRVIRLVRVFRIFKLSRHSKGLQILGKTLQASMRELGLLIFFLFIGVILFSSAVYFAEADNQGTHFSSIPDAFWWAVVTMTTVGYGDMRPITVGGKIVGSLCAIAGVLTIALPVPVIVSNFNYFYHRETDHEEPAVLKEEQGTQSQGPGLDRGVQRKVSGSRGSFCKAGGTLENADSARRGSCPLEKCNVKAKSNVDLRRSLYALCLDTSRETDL

[2] = Aqueous solubility at pH 6.5; assay type: physicochemical
[3] = biological target: T1, Potassium voltage-gated channel subfamily A member 5; experiment: Inhibition of human Kv1.5 channel expressed in mouse L929 cells assessed as blockade of ultra rapidly activating potassium current at 1 uM by voltage clamp technique; assay type: cell-based

Row | Compound | IC50 [1] [nM] | solubility [2] [µg/mL] | inhibition [3] [%]
1 | CCc1ccc(S(=O)(=O)N[C@H]2CCCc3ccc(N(Cc4cccc(C)n4)C(=O)CCc4ccccc4)cc32)cc1 | 46 |  | 
2 | CCc1ccc(S(=O)(=O)N[C@@H]2c3cc(NC(=O)c4cccc(OC)c4)ccc3C[C@H]2O)cc1 | 50 |  | 
3 | CCc1ccc(S(=O)(=O)N[C@@H]2c3cc(C(=O)N(CC)Cc4ccccc4F)ccc3OC(C)(C)[C@H]2O)cc1 (racemic) |  | 10 (≈ 18.5 µM) | 
4 | CCc1ccc(S(=O)(=O)N[C@@H]2c3cc(C(=O)N(CC)Cc4ccccc4OC)cnc3OC(C)(C)[C@H]2O)cc1 (racemic) | 2090 |  | 35
5 | CCc1ccc(S(=O)(=O)N[C@@H]2c3cc(C(=O)N(CC)Cc4ccc(C)cc4)cnc3OC(C)(C)[C@H]2O)cc1 (racemic) | 1560 |  | 15
6 | CCc1ccc(S(=O)(=O)N[C@@H]2c3cc(C(=O)N(CC)Cc4c(F)cccc4Cl)cnc3OC(C)(C)[C@H]2O)cc1 (racemic) | 615 |  | 54
7 | CCc1ccc(S(=O)(=O)N[C@@H]2c3cc(C(=O)Nc4ccc(Br)cc4)ccc3OC(C)(C)[C@H]2O)cc1 (racemic) | 316 |  | 73
8 | CCc1ccc(S(=O)(=O)N[C@@H]2c3cc(C(=O)N(CC)Cc4ccc(OC)cc4)cnc3OC(C)(C)[C@H]2O)cc1 (racemic) | 605 |  | 70
9 | CCc1ccc(S(=O)(=O)N[C@@H]2c3cc(C(=O)N4CCC[C@H]4CNc4c(C)cccc4C)ccc3OC(C)(C)[C@H]2O)cc1 (racemic) | 60 |  | 
10 | CCc1ccc(S(=O)(=O)N[C@@H]2c3cc(C(=O)N(C)c4ccccc4)ccc3OC(C)(C)[C@H]2O)cc1 (racemic) |  |  | 87
11 | CCc1ccc(S(=O)(=O)N[C@@H]2c3cc(C(=O)N(CC)Cc4cccc(OC)c4)cnc3OC(C)(C)[C@H]2O)cc1 (racemic) |  |  | 23
12 | CCc1ccc(S(=O)(=O)N[C@@H]2c3cc(C(=O)N(CC)c4ccc(OC)cc4)cnc3OC(C)(C)[C@H]2O)cc1 (racemic) |  |  | 22
13 | CCc1ccc(S(=O)(=O)N[C@@H]2c3cc(C(=O)N4CCC[C@H]4CNc4c(C)cccc4C)cnc3OC(C)(C)[C@H]2O)cc1 (racemic) |  |  | 15

Further lines, results first:

Row | IC50 [1] [nM] | solubility [2] [µg/mL] | inhibition [3] [%] | Compound
14 | 912 |  | 52 | CCc1ccc(S(=O)(=O)N[C@@H]2c3cc(C(=O)N(CC)c4cc(F)ccc4F)cnc3OC(C)(C)[C@H]2O)cc1 (racemic)
15 | 378 | 108 (≈ 212 µM) | 89 | CCc1ccc(S(=O)(=O)N[C@@H]2c3cc(C(=O)N(CC)c4ccccc4)cnc3OC(C)(C)[C@H]2O)cc1 (racemic)
16 | 649 |  | 64 | CCc1ccc(S(=O)(=O)N[C@@H]2c3cc(C(=O)N(CC)c4cccc(Cl)c4)cnc3OC(C)(C)[C@H]2O)cc1 (racemic)
17 | 776 |  | 58 | CCc1ccc(S(=O)(=O)N[C@@H]2c3cc(C(=O)N(CC)c4cccc(C)c4)cnc3OC(C)(C)[C@H]2O)cc1 (racemic)
18 |  |  | 12 | CCc1ccc(S(=O)(=O)N[C@@H]2c3cc(C(=O)N(C)Cc4ccccc4)cnc3OC(C)(C)[C@H]2O)cc1 (racemic)
19 |  |  | 12 | CCc1ccc(S(=O)(=O)N[C@@H]2c3cc(C(=O)N(C)c4ccccc4)cnc3OC(C)(C)[C@H]2O)cc1 (racemic)
20 |  |  | 20 | CCc1ccc(S(=O)(=O)N[C@@H]2c3cc(C(=O)N(CC)Cc4ccccc4)cnc3OC(C)(C)[C@H]2O)cc1 (racemic)
21 |  |  | 2 | CCc1ccc(S(=O)(=O)N[C@@H]2c3cc(C(=O)N4CCN=C4c4ccccc4)cnc3OC(C)(C)[C@H]2O)cc1 (racemic)
22 |  |  | 30 | CCc1ccc(S(=O)(=O)N[C@@H]2c3cc(C(=O)N4CCc5ccccc54)cnc3OC(C)(C)[C@H]2O)cc1 (racemic)
23 |  |  | 17 | CCc1ccc(S(=O)(=O)N[C@@H]2c3cc(C(=O)NCc4ccccc4)cnc3OC(C)(C)[C@H]2O)cc1 (racemic)
24 |  |  | 4 | CCc1ccc(S(=O)(=O)N[C@@H]2c3cc(C(=O)NCc4ccccc4F)cnc3OC(C)(C)[C@H]2O)cc1 (racemic)
25 |  |  | 31 | CCc1ccc(S(=O)(=O)N[C@@H]2c3cc(C(=O)Nc4cc(NC(C)=O)n[nH]4)cnc3OC(C)(C)[C@H]2O)cc1 (racemic)
26 |  |  | 8 | CCc1ccc(S(=O)(=O)N[C@@H]2c3cc(C(=O)Nc4ccc(Br)cc4)cnc3OC(C)(C)[C@H]2O)cc1 (racemic)
27 |  |  | 3 | CCc1ccc(S(=O)(=O)N[C@@H]2c3cc(C(=O)Nc4nnc(C(F)(F)F)s4)cnc3OC(C)(C)[C@H]2O)cc1 (racemic)
